Source: PubChem BioAssay AID248 (DTP/NCI, 2004)
Where “and” joins values, the source holds several entries; their conditions need not be identical. Equal entries are not always repeated. Inconclusive results and toxic doses are left out. Rule as the data show it: active = T/C of 150% or more; inactive = T/C below 125%.

Test system: L1210 leukemia ip in BDF1 mice, survival T/C
Experiment: NCI In Vivo Anticancer Drug Screen. Data for tumor model L1210 Leukemia (intraperitoneal) in B6D2F1 (BDF1) mice
Conditions: endpoint: mean survival time, higher = longer survival
Summary of the method: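 Each compound was tested against a transplantable tumor grown in mice. The endpoint was survival, with treated animals benchmarked against vehicle controls as a simple ratio.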

[1] = dose: 100.0 mg/kg/injection, schedule: Q04DX003 (ip), vehicle: saline
[2] = dose: 200.0 mg/kg/injection, schedule: Q04DX003 (ip), vehicle: saline
[3] = dose: 400.0 mg/kg/injection, schedule: Q04DX003 (ip), vehicle: saline
[4] = dose: 100.0 mg/kg/injection, schedule: Q01DX001 (ip), vehicle: saline
[5] = dose: 200.0 mg/kg/injection, schedule: Q01DX001 (ip), vehicle: saline
[6] = dose: 400.0 mg/kg/injection, schedule: Q01DX001 (ip), vehicle: saline
[7] = dose: 50.0 mg/kg/injection, schedule: Q01DX009 (ip), vehicle: Klucel (hydroxypropylcellulose) (HPC)
[8] = dose: 100.0 mg/kg/injection, schedule: Q01DX009 (ip), vehicle: Klucel (hydroxypropylcellulose) (HPC)
[9] = dose: 25.0 mg/kg/injection, schedule: Q04DX003 (ip), vehicle: saline
[10] = dose: 200.0 mg/kg/injection, schedule: Q01DX009 (ip), vehicle: Klucel (hydroxypropylcellulose) (HPC)
[11] = dose: 100.0 mg/kg/injection, schedule: Q04DX003 (ip), vehicle: Klucel (hydroxypropylcellulose) (HPC)
[12] = dose: 200.0 mg/kg/injection, schedule: Q04DX003 (ip), vehicle: Klucel (hydroxypropylcellulose) (HPC)
[13] = dose: 400.0 mg/kg/injection, schedule: Q04DX003 (ip), vehicle: Klucel (hydroxypropylcellulose) (HPC)
[14] = dose: 100.0 mg/kg/injection, schedule: Q01DX009 (ip), vehicle: other
[15] = dose: 200.0 mg/kg/injection, schedule: Q01DX009 (ip), vehicle: other
[16] = dose: 50.0 mg/kg/injection, schedule: Q04DX003 (ip), vehicle: saline

Measured: T/C

O=c1ccn(Cc2ccccc2)cn1
inactive: [1] 106 % of control | [2] 104 % of control | [3] 98 % of control

O=C(Nc1ccccc1)OC1CCCC2CCC21 (stereo unspecified)
inactive: [4] 97 % of control | [5] 90 % of control | [6] 90 % of control

CCN(CC)CCN(C)c1cc(C)nc(/N=C(\N)Nc2ccc(Cl)c(Cl)c2)n1
inactive: dose: 18.75 mg/kg/injection, schedule: Q01DX009 (ip), vehicle: saline with Tween-80 92 % of control | dose: 37.5 mg/kg/injection, schedule: Q01DX009 (ip), vehicle: saline with Tween-80 103 % of control | dose: 37.5 mg/kg/injection, schedule: Q04DX003 (ip), vehicle: saline with Tween-80 93 % of control | dose: 75.0 mg/kg/injection, schedule: Q01DX009 (ip), vehicle: saline with Tween-80 92 % of control | dose: 75.0 mg/kg/injection, schedule: Q04DX003 (ip), vehicle: saline with Tween-80 97 % of control

O=C(Nc1ccc(Cl)cc1)Oc1c(Cl)cc(S(=O)(=O)F)cc1Cl
inactive: dose: 25.0 mg/kg/injection, schedule: Q04DX002 (ip), vehicle: Klucel (hydroxypropylcellulose) (HPC) 94 % of control | [7] 97 % of control | dose: 50.0 mg/kg/injection, schedule: Q04DX002 (ip), vehicle: Klucel (hydroxypropylcellulose) (HPC) 91 % of control | [8] 97 % of control | dose: 100.0 mg/kg/injection, schedule: Q04DX002 (ip), vehicle: Klucel (hydroxypropylcellulose) (HPC) 99 % of control and 91 % of control

CCCCC(=O)C(OC)OC
inactive: dose: 100.0 mg/kg/injection, schedule: Q01DX009 (ip), vehicle: saline with Tween-80 119 % of control | dose: 200.0 mg/kg/injection, schedule: Q01DX009 (ip), vehicle: saline with Tween-80 95 % of control | dose: 400.0 mg/kg/injection, schedule: Q01DX009 (ip), vehicle: saline with Tween-80 92 % of control

C1CC2CCCC3C4CCCC5CCCC(C(C1)C23)C54 (stereo unspecified)
inactive: [4] 94 % of control | [5] 100 % of control | [6] 97 % of control

Cc1ccc(I)cc1NCN1C(=O)c2ccccc2C1=O
inactive: dose: 100.0 mg/kg/injection, schedule: Q04DX002 (ip), vehicle: saline with Tween-80 100 % of control | dose: 200.0 mg/kg/injection, schedule: Q04DX002 (ip), vehicle: saline with Tween-80 107 % of control | dose: 400.0 mg/kg/injection, schedule: Q04DX002 (ip), vehicle: saline with Tween-80 104 % of control

CC1CCC2C(=CC(=O)CC2(C)C)C1 (stereo unspecified)
inactive: [4] 109 % of control | [1] 108 % of control | [5] 101 % of control | [2] 104 % of control | [6] 96 % of control | [3] 103 % of control

CN(N=O)C(=O)Nc1ccc(F)cc1
inactive: dose: 6.25 mg/kg/injection, schedule: Q01DX Z (ip), vehicle: carboxymethylcellulose (CMC) 110 % of control | dose: 12.5 mg/kg/injection, schedule: Q01DX Z (ip), vehicle: carboxymethylcellulose (CMC) 103 % of control | dose: 25.0 mg/kg/injection, schedule: Q01DX Z (ip), vehicle: carboxymethylcellulose (CMC) 111 % of control | dose: 75.0 mg/kg/injection, schedule: Q01DX001 (ip), vehicle: carboxymethylcellulose (CMC) 120 % of control

O=C1OC(=O)C(Br)C1Br (stereo unspecified)
inactive: dose: 1.56 mg/kg/injection, schedule: Q04DX003 (ip), vehicle: saline 106 % of control | dose: 3.12 mg/kg/injection, schedule: Q04DX003 (ip), vehicle: saline 106 % of control | dose: 6.25 mg/kg/injection, schedule: Q04DX003 (ip), vehicle: saline 95 % of control | dose: 12.5 mg/kg/injection, schedule: Q04DX003 (ip), vehicle: saline 108 % of control | [9] 87 % of control

O=[N+]([O-])c1cccc(S(=O)(=O)OCC2CO2)c1 (stereo unspecified)
inactive: [8] 98 % of control | [10] 104 % of control

CCOC(=O)C(OCc1ccccc1)(C(=O)N1CCCCC1=O)C(C)C (stereo unspecified)
inactive: dose: 25.0 mg/kg/injection, schedule: Q04DX003 (ip), vehicle: Klucel (hydroxypropylcellulose) (HPC) 119 % of control | dose: 50.0 mg/kg/injection, schedule: Q04DX003 (ip), vehicle: Klucel (hydroxypropylcellulose) (HPC) 97 % of control | [11] 113 % of control | [12] 88 % of control

CC(=N\N)/C(C)=N/N
inactive: dose: 6.25 mg/kg/injection, schedule: Q01DX009 (ip), vehicle: saline with Tween-80 102 % of control | dose: 12.5 mg/kg/injection, schedule: Q01DX009 (ip), vehicle: saline with Tween-80 100 % of control | dose: 25.0 mg/kg/injection, schedule: Q01DX009 (ip), vehicle: saline with Tween-80 107 % of control

Cc1ccc(C(=O)C2CC2c2ccccc2)cc1 (stereo unspecified)
inactive: [11] 101 % of control | [12] 101 % of control | [13] 95 % of control

COC(=O)c1ccccc1NC(=O)Nc1ccc(F)c([N+](=O)[O-])c1
inactive: dose: 25.0 mg/kg/injection, schedule: Q01DX009 (ip), vehicle: Klucel (hydroxypropylcellulose) (HPC) 109 % of control | [7] 103 % of control | [8] 93 % of control and 89 % of control | [10] 95 % of control | dose: 400.0 mg/kg/injection, schedule: Q01DX009 (ip), vehicle: Klucel (hydroxypropylcellulose) (HPC) 93 % of control

CCOc1cc(C=Nc2cccc(C(F)(F)F)c2)ccc1O
inactive: [14] 100 % of control | dose: 100.0 mg/kg/injection, schedule: Q04DX003 (ip), vehicle: other 95 % of control | [15] 99 % of control | dose: 200.0 mg/kg/injection, schedule: Q04DX003 (ip), vehicle: other 90 % of control | dose: 400.0 mg/kg/injection, schedule: Q04DX003 (ip), vehicle: other 92 % of control

CN(C)Cc1cccc([N+](=O)[O-])c1
inactive: [9] 88 % of control | [16] 98 % of control | [1] 102 % of control

CCCC1=Cc2cc3c(cc2C1N(C)C)OCO3 (stereo unspecified)
inactive: dose: 100.0 mg/kg/injection, schedule: Q01DX001 (ip), vehicle: Klucel (hydroxypropylcellulose) (HPC) 97 % of control | dose: 200.0 mg/kg/injection, schedule: Q01DX001 (ip), vehicle: Klucel (hydroxypropylcellulose) (HPC) 97 % of control

CSc1cc(C)c(O)c(C)c1
inactive: [14] 98 % of control | [15] 101 % of control

CN(C)c1ccc(I)cc1
inactive: dose: 25.0 mg/kg/injection, schedule: Q01DX001 (ip), vehicle: saline with Tween-80 107 % of control | dose: 50.0 mg/kg/injection, schedule: Q01DX001 (ip), vehicle: saline with Tween-80 110 % of control

CCOC(=O)C(C)(C)CC(=O)COC
inactive: dose: 100.0 mg/kg/injection, schedule: Q01DX001 (ip), vehicle: acetone 98 % of control | dose: 100.0 mg/kg/injection, schedule: Q01DX009 (ip), vehicle: acetone 95 % of control | dose: 200.0 mg/kg/injection, schedule: Q01DX001 (ip), vehicle: acetone 100 % of control | dose: 200.0 mg/kg/injection, schedule: Q01DX009 (ip), vehicle: acetone 90 % of control | dose: 400.0 mg/kg/injection, schedule: Q01DX001 (ip), vehicle: acetone 94 % of control | dose: 400.0 mg/kg/injection, schedule: Q01DX009 (ip), vehicle: acetone 105 % of control

N#C[SH2+].N#C[SH2+].N#C[SH2+].N#C[SH2+].[Cu+2].c1ccc(C[P+](c2ccccc2)(c2ccccc2)c2ccccc2)cc1
inactive: dose: 6.0 mg/kg/injection, schedule: Q01DX009 (ip), vehicle: saline 100 % of control

CCN=C(N)c1ccc(NC(=O)c2ccc(C(=O)Nc3ccc(C(N)=NCC)cc3)cc2)cc1
inactive: dose: 1.0 mg/kg/injection, schedule: Q01DX Z (ip), vehicle: other 115 % of control | dose: 2.0 mg/kg/injection, schedule: Q01DX Z (ip), vehicle: other 91 % of control | dose: 8.0 mg/kg/injection, schedule: Q01DX Z (ip), vehicle: carboxymethylcellulose (CMC) 100 % of control

NC(=O)C(c1ccccc1)N1CCCC1 (stereo unspecified)
inactive: dose: 25.0 mg/kg/injection, schedule: Q01DX009 (ip), vehicle: saline 91 % of control | [9] 98 % of control | dose: 50.0 mg/kg/injection, schedule: Q01DX009 (ip), vehicle: saline 94 % of control | [16] 97 % of control | dose: 100.0 mg/kg/injection, schedule: Q01DX009 (ip), vehicle: saline 91 % of control | [1] 95 % of control

CC(=O)Oc1ccc(/C=C(\NC(=O)c2ccccc2)C(=O)O)cc1
inactive: [11] 95 % of control | [12] 91 % of control | [13] 91 % of control

COc1cc(C)cc(C(=O)O)c1O
inactive: dose: 200.0 mg/kg/injection, schedule: Q01DX001 (ip), vehicle: carboxymethylcellulose (CMC) 90 % of control
